Data as given in US9175003B2, “Substituted azoanthracene derivatives and intermediates for preparation thereof” (TransTech Pharma, LLC, priority 2009, dated 2015).

biological target: human GLP-1 receptor (Homo sapiens (Human), UniProt P43220); conditions: read-out: Mean EC50; cAMP, HTRF detection, 30 min at 37° C., HEK-293 cells expressing cloned human GLP-1 receptor
Sequence (P43220 24-463): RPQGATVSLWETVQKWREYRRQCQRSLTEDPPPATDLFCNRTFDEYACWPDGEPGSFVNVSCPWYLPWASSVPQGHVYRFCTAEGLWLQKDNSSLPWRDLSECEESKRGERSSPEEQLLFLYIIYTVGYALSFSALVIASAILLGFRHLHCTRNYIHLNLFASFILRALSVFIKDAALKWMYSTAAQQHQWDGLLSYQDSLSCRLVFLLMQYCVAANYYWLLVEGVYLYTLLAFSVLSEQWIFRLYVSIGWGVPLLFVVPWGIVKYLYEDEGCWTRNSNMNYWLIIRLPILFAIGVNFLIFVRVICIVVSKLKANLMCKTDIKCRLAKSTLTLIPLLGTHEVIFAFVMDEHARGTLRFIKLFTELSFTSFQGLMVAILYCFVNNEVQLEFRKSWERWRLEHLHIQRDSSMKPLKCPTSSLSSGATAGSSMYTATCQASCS

Compound	EC50 [nM]
Cc1nccc(-c2ccc(C[C@H](NC(=O)[C@@H]3Cc4cc5c(cc4CN3C(=O)N[C@H](C)c3ccccc3)O[C@@H](c3ccc(OCc4cccc(Cl)c4Cl)cc3)CO5)C(=O)O)cc2)c1C [Example 369, (S)-2-{[(3S,8S)-3-[4-(2,3-Dichloro-benzyloxy)-phenyl]-7-((R)-1-phenyl-ethylcarbamoyl)-2,3,6,7,8,9-hexahydro-[1,4]dioxino[2,3-g]isoquinoline-8-carbonyl]-amino}-3-[4-(2,3-dimethyl-pyridin-4-yl)-phenyl]-propionic acid]	112
CC[C@H]1CC[C@H](Oc2ccc([C@H]3COc4cc5c(cc4O3)CN(C(=O)c3nc(C)oc3C)[C@H](C(=O)N[C@@H](Cc3ccc(-c4ccnc(C)c4C)cc3)C(=O)O)C5)cc2)CC1 [Example 373, (S)-2-({(3S,8S)-7-(2,5-Dimethyl-oxazole-4-carbonyl)-3-[-4-(trans-4-ethyl-cyclohexyloxy)-phenyl]-2,3,6,7,8,9-hexahydro-[1,4]dioxino[2,3-g]isoquinoline-8-carbonyl}-amino)-3-[4-(2,3-dimethyl-pyridin-4-yl)-phenyl]-propionic acid]	187
Cc1nc(C(=O)N2Cc3cc4c(cc3C[C@H]2C(=O)N[C@@H](Cc2ccc(-c3ccnc(C)c3C)cc2)C(=O)O)OC[C@H](c2ccc(OCC3(c5ccc(Cl)cc5)CC3)cc2)O4)c(C)o1 [Example 378, (S)-2-{[(3S,8S)-3-{4-[1-(4-Chloro-phenyl)-cyclopropylmethoxy]-phenyl}-7-(2,5-dimethyl-oxazole-4-carbonyl)-2,3,6,7,8,9-hexahydro-[1,4]dioxino[2,3-g]isoquinoline-8-carbonyl]-amino}-3-[4-(2,3-dimethyl-pyridin-4-yl)-phenyl]-propionic acid]	282
Cc1nc(C(=O)N2Cc3cc4c(cc3C[C@H]2C(=O)N[C@@H](Cc2ccc(-c3ccnc(C)c3C)cc2)C(=O)O)OC[C@H](c2ccc(OCC3CCCC3)cc2)O4)c(C)o1 [Example 379, (S)-2-{[(3S,8S)-3-(4-cyclopentylmethoxy-phenyl)-7-(2,5-dimethyl-oxazole-4-carbonyl)-2,3,6,7,8,9-hexahydro-[1,4]dioxino[2,3-g]isoquinoline-8-carbonyl]-amino}-3-[4-(2,3-dimethyl-pyridin-4-yl)-phenyl]-propionic acid]	152
Cc1nc(C(=O)N2Cc3cc4c(cc3C[C@H]2C(=O)N[C@@H](Cc2ccc(-c3ccnc(C)c3C)cc2)C(=O)O)OC[C@H](c2ccc(OCCC(C)(C)C)cc2)O4)c(C)o1 [Example 380, (S)-2-{[(3S,8S)-3-[4-(3,3-dimethyl-butoxy)-phenyl]-7-(2,5-dimethyl-oxazole-4-carbonyl)-2,3,6,7,8,9-hexahydro-[1,4]dioxino[2,3-g]isoquinoline-8-carbonyl]-amino}-3-[4-(2,3-dimethyl-pyridin-4-yl)-phenyl]-propionic acid]	213
Cc1nc(C(=O)N2Cc3cc4c(cc3C[C@H]2C(=O)N[C@@H](Cc2ccc(-c3ccnc(C)c3C)cc2)C(=O)O)OC[C@H](c2ccc(O[C@H]3CC[C@@H](C)CC3)cc2)O4)c(C)o1 [Example 381, (S)-2-({(3S,8S)-7-(2,5-Dimethyl-oxazole-4-carbonyl)-3-[4-(cis-4-methyl-cyclohexyloxy)-phenyl]-2,3,6,7,8,9-hexahydro-[1,4]dioxino[2,3-g]isoquinoline-8-carbonyl}-amino)-3-[4-(2,3-dimethyl-pyridin-4-yl)-phenyl]-propionic acid]	313
Cc1nc(C(=O)N2Cc3cc4c(cc3C[C@H]2C(=O)N[C@@H](Cc2ccc(-c3ccnc(C)c3C)cc2)C(=O)O)OC[C@H](c2ccc(O[C@H]3CC[C@H](C)CC3)cc2)O4)c(C)o1 [Example 382, (S)-2-({(3S,8S)-7-(2,5-Dimethyl-oxazole-4-carbonyl)-3-[4-(trans-4-methyl-cyclohexyloxy)-phenyl]-2,3,6,7,8,9-hexahydro-[1,4]dioxino[2,3-g]isoquinoline-8-carbonyl}-amino)-3-[4-(2,3-dimethyl-pyridin-4-yl)-phenyl]-propionic acid]	106
Cc1nc(C(=O)N2Cc3cc4c(cc3C[C@H]2C(=O)N[C@@H](Cc2ccc(-c3ccnc(C)c3C)cc2)C(=O)O)OC[C@H](c2ccc(OCc3ccc(Cl)cc3Cl)cc2)O4)c(C)o1 [Example 383, (S)-2-{[(3S,8S)-3-[4-(2,4-dichloro-benzyloxy)-phenyl]-7-(2,5-dimethyl-oxazole-4-carbonyl)-2,3,6,7,8,9-hexahydro-[1,4]dioxino[2,3-g]isoquinoline-8-carbonyl]-amino}-3-[4-(2,3-dimethyl-pyridin-4-yl)-phenyl]-propionic acid]	138
Cc1nc(C(=O)N2Cc3cc4c(cc3C[C@H]2C(=O)N[C@@H](Cc2ccc(-c3ccnc(C)c3C)cc2)C(=O)O)OC[C@H](c2ccc(O[C@H]3CC[C@@H](C(C)(C)C)CC3)cc2)O4)c(C)o1 [Example 386, (S)-2-{[(3S,8S)-3-[4-(cis-4-tert-Butyl-cyclohexyloxy)-phenyl]-7-(2,5-dimethyl-oxazole-4-carbonyl)-2,3,6,7,8,9-hexahydro-[1,4]dioxino[2,3-g]isoquinoline-8-carbonyl]-amino}-3-[4-(2,3-dimethyl-pyridin-4-yl)-phenyl]-propionic acid]	269

Molecules with a lower EC50, results first:

EC50 [nM]	Compound
12	Cc1nc(C(=O)N2Cc3cc4c(cc3C[C@H]2C(=O)N[C@@H](Cc2ccc(-c3ccnc(C)c3C)cc2)C(=O)O)OC[C@H](c2ccc(OCc3cc(Cl)ccc3Cl)cc2)O4)c(C)o1 [Example 362, (S)-2-{[(3S,8S)-3-[4-(2,5-Dichloro-benzyloxy)-phenyl]-7-(2,5-dimethyl-oxazole-4-carbonyl)-2,3,6,7,8,9-hexahydro-[1,4]dioxino[2,3-g]isoquinoline-8-carbonyl]-amino}-3-[4-(2,3-dimethyl-pyridin-4-yl)-phenyl]-propionic acid]
95	Cc1nccc(-c2ccc(C[C@H](NC(=O)[C@@H]3Cc4cc5c(cc4CN3C(=O)N[C@H](C)c3ccccc3)O[C@@H](c3ccc(OCc4cc(F)cc(F)c4)cc3)CO5)C(=O)O)cc2)c1C [Example 365, (S)-2-{[(3S,8S)-3-[4-(3,5-Difluoro-benzyloxy)-phenyl]-7-((R)-1-phenyl-ethylcarbamoyl)-2,3,6,7,8,9-hexahydro-[1,4]dioxino[2,3-g]isoquinoline-8-carbonyl]-amino}-3-[4-(2,3-dimethyl-pyridin-4-yl)-phenyl]-propionic acid]
62	Cc1nccc(-c2ccc(C[C@H](NC(=O)[C@@H]3Cc4cc5c(cc4CN3C(=O)N[C@H](C)c3ccccc3)O[C@@H](c3ccc(OCc4cc(Cl)ccc4Cl)cc3)CO5)C(=O)O)cc2)c1C [Example 370, (S)-2-{[(3S,8S)-3-[4-(2,5-Dichloro-benzyloxy)-phenyl]-7-((R)-1-phenyl-ethylcarbamoyl)-2,3,6,7,8,9-hexahydro-[1,4]dioxino[2,3-g]isoquinoline-8-carbonyl]-amino}-3-[4-(2,3-dimethyl-pyridin-4-yl)-phenyl]-propionic acid]
36	Cc1nc(C(=O)N2Cc3cc4c(cc3C[C@H]2C(=O)N[C@@H](Cc2ccc(-c3ccnc(C)c3C)cc2)C(=O)O)OC[C@H](c2ccc(OCCc3ccc(Cl)cc3)cc2)O4)c(C)o1 [Example 371, (S)-2-{[(3S,8S)-3-{4-[2-(4-Chloro-phenyl)-ethoxy]-phenyl}-7-(2,5-dimethyl-oxazole-4-carbonyl)-2,3,6,7,8,9-hexahydro-[1,4]dioxino[2,3-g]isoquinoline-8-carbonyl]-amino}-3-[4-(2,3-dimethyl-pyridin-4-yl)-phenyl]-propionic acid]
64	Cc1nc(C(=O)N2Cc3cc4c(cc3C[C@H]2C(=O)N[C@@H](Cc2ccc(-c3ccnc(C)c3C)cc2)C(=O)O)OC[C@H](c2ccc(O[C@H]3CC[C@H](C(C)(C)C)CC3)cc2)O4)c(C)o1 [Example 372, (S)-2-{[(3S,8S)-3-[4-(trans-4-tert-Butyl-cyclohexyloxy)-phenyl]-7-(2,5-dimethyl-oxazole-4-carbonyl)-2,3,6,7,8,9-hexahydro-[1,4]dioxino[2,3-g]isoquinoline-8-carbonyl]-amino}-3-[4-(2,3-dimethyl-pyridin-4-yl)-phenyl]-propionic acid]
50	Cc1nc(C(=O)N2Cc3cc4c(cc3C[C@H]2C(=O)N[C@@H](Cc2ccc(-c3ccnc(C)c3C)cc2)C(=O)O)OC[C@H](c2ccc(OC3CCC(Cl)CC3)cc2)O4)c(C)o1 (stereo partly drawn) [Example 375, (S)-2-{[(3S,8S)-3-[4-(4-Chloro-cyclohexyloxy)-phenyl]-7-(2,5-dimethyl-oxazole-4-carbonyl)-2,3,6,7,8,9-hexahydro-[1,4]dioxino[2,3-g]isoquinoline-8-carbonyl]-amino}-3-[4-(2,3-dimethyl-pyridin-4-yl)-phenyl]-propionic acid]
38	Cc1nc(C(=O)N2Cc3cc4c(cc3C[C@H]2C(=O)N[C@@H](Cc2ccc(-c3ccnc(C)c3C)cc2)C(=O)O)OC[C@H](c2ccc(OCc3cncc(Cl)c3)cc2)O4)c(C)o1 [Example 376, (S)-2-{[(3S,8S)-3-[4-(5-Chloro-pyridin-3-ylmethoxy)-phenyl]-7-(2,5-dimethyl-oxazole-4-carbonyl)-2,3,6,7,8,9-hexahydro-[1,4]dioxino[2,3-g]isoquinoline-8-carbonyl]-amino}-3-[4-(2,3-dimethyl-pyridin-4-yl)-phenyl]-propionic acid]
49	Cc1nc(C(=O)N2Cc3cc4c(cc3C[C@H]2C(=O)N[C@@H](Cc2ccc(-c3ccnc(C)c3C)cc2)C(=O)O)OC[C@H](c2ccc(OCCc3ccccc3)cc2)O4)c(C)o1 [Example 377, (S)-2-{[(3S,8S)-7-(2,5-Dimethyl-oxazole-4-carbonyl)-3-(4-phenethyloxy-phenyl)-2,3,6,7,8,9-hexahydro-[1,4]dioxino[2,3-g]isoquinoline-8-carbonyl]-amino}-3-[4-(2,3-dimethyl-pyridin-4-yl)-phenyl]-propionic acid]
26	Cc1nc(C(=O)N2Cc3cc4c(cc3C[C@H]2C(=O)N[C@@H](Cc2ccc(-c3ccnc(C)c3C)cc2)C(=O)O)OC[C@H](c2ccc(OCc3cc(Cl)cc(Cl)c3)cc2)O4)c(C)o1 [Example 384, (S)-2-{[(3S,8S)-3-[4-(3,5-Dichloro-benzyloxy)-phenyl]-7-(2,5-dimethyl-oxazole-4-carbonyl)-2,3,6,7,8,9-hexahydro-[1,4]dioxino[2,3-g]isoquinoline-8-carbonyl]-amino}-3-[4-(2,3-dimethyl-pyridin-4-yl)-phenyl]-propionic acid]
